“Also recorded” adds a separate entry of the source.
Columns and labels:
Assay type in all cases: cell-based, human
EIII8-HUVEC co-cultures [1] = assay: Heterotypic EIII8-HUVEC 3D Matrigel co-culture, morphology; settings: for inhibition of endothelial sprouting and associated ductal-alveolar morphogenesis: 1 nM E2 plus 100-fold molar excess of antiestrogen, day 5
From the text: For heterotypic 3D co-cultures, 5×10^4 MCF10A, MCF10AT1, or EIII8 cells were mixed with an equal number of HUVECs, human breast fibroblasts (reduction mammoplasty, benign or tumor-derived), IMR-90, HT1080 or NIH 3T3 cells. For heterotypic tricultures, MCF10A or EIII8 cells were mixed with equivalent numbers of human breast fibroblasts (reduction mammoplasty, benign or tumor-derived) and HUVECs and seeded onto chamber slides coated with Matrigel as described for homotypic cultures. Typically, heterotypic co-cultures were performed in SFM supplemented with EGF and bFGF since this medium results in optimal viability, growth and 3D organization of both HUVEC and MCF10A cells. Typically, heterotypic cultures were performed in SFM supplemented with EGF and bFGF because it allows optimal viability, growth and 3D organization of HUVEC, fibroblasts and MCF10A cells. Heterotypic co-cultures were routinely maintained up to 3 weeks, and morphological development was analyzed by phase contrast microscopy. F To assess growth effects of E2 on homotypic (EIII8) or heterotypic (EIII8-HUVEC) 3D cultures, 5×10^4 EIII8 cells were seeded alone or mixed with an equivalent number of HUVEC in the appropriate medium in 8-well chamber slides coated with Matrigel as described above. Slides were incubated overnight to allow attachment of the cells, and treated with vehicle (0.01% ethanol, v/v), pure antiestrogen ICI 182,780 alone (100 or 1000 nM (Zeneca Pharmaceuticals, […]2 (0.1, 1 or 10 nM; Sigma Chemical Co., St. Louis, Mo.), or a combination of 1 nM E2 and 100- or 1000-fold molar excess of ICI 182,780. Cultures were incubated at 37° C. for 5 days, after which cell viability was measured with the MTS (3-(4,5-dimethylthiazol-2-yl)-5-(3-carboxymethoxyphenyl)-2-(4-sulfophenyl)-2H-tetrazolium) kit according to the manufacturer's directions (Promega Corp, Madison, Wis.).

VEGF165 = assay: Western blot of VEGF165 in culture media of EIII8-HUVEC 3D cultures
Experimental: (§1) 5×10^4 EIII8 or MCF10A cells were seeded alone or mixed with an equivalent number of HUVEC on Matrigel in SFM media as described above. Cells were incubated for 6 h to attach and the medium was replaced with fresh SFM. After appropriate incubation, the culture media from homotypic and heterotypic co-cultures were collected, centrifuged to remove debris and stored at −20° C. Following removal of culture medium, matrix containing the 3D structures was either solubilized for SDS-PAGE and Western blot analysis or fixed in buffered formalin for evaluation of morphology and distribution of functional markers. Analysis of expression of VEGF, IL-8, Estrogen receptor (ER) and Flk-1/KDR proteins was carried out by Western analysis with specific antibodies. […] The following antibodies to human proteins were used: (1) rabbit polyclonal anti-VEGF antisera (recognizes C-terminal epitope of VEGF165, VEGF189 and VEGF206; Oncogene Science), mouse anti-ER mAb (Clone 1D5; reacts with the N-terminal domain or A/B region of the ER; Dako Corp., Carpenteria, Calif.), mouse anti-Flk-1/KDR mAb (Chemicon International, Inc.) and goat polyclonal anti-IL-8 antibody (R&D Systems). Immunoreactive bands were visualized by chemiluminescence, and band intensities were quantitated with a Model 300A densitometer (Molecular Dynamics, Sunnyvale, Calif.).

IL-8 = assay: Western blot of IL-8 in culture media of EIII8-HUVEC 3D cultures
Experimental: as §1

MCF10A-HUVEC co-cultures = assay: Heterotypic MCF10A-HUVEC 3D Matrigel co-culture, morphology
From the text: For heterotypic 3D co-cultures, 5×10^4 MCF10A, MCF10AT1, or EIII8 cells were mixed with an equal number of HUVECs, human breast fibroblasts (reduction mammoplasty, benign or tumor-derived), IMR-90, HT1080 or NIH 3T3 cells. For heterotypic tricultures, MCF10A or EIII8 cells were mixed with equivalent numbers of human breast fibroblasts (reduction mammoplasty, benign or tumor-derived) and HUVECs and seeded onto chamber slides coated with Matrigel as described for homotypic cultures. Typically, heterotypic co-cultures were performed in SFM supplemented with EGF and bFGF since this medium results in optimal viability, growth and 3D organization of both HUVEC and MCF10A cells. Typically, heterotypic cultures were performed in SFM supplemented with EGF and bFGF because it allows optimal viability, growth and 3D organization of HUVEC, fibroblasts and MCF10A cells. Heterotypic co-cultures were routinely maintained up to 3 weeks, and morphological development was analyzed by phase contrast microscopy. F

[2] = system: EIII8+38T+HUVEC tricultures; assay: 3D growth of EIII8+38T+HUVEC tricultures, viable cell count
Experimental: (§2) 3-D cultures were set up by seeding 5×10^4 EIII8, HUVEC, […] or […] (reduction mammoplasty fibroblasts), […] or […] (tumor-derived breast fibroblasts) alone or mixing 5×10^4 EIII8 cells with an equivalent number of […] (or […]) or […] (or […]) in the absence or presence of an equivalent number of HUVEC cells onto chamber slides coated with Matrigel as described above. Cultures were incubated at 37° C. for 6 days, after which the cell viability was measured in the 3-D cultures. The medium was removed, wells were rinsed with phosphate buffered saline, and the Matrigel was digested with dispase for 2 h at 37° C. The digested material was centrifuged at 4000×g for 10 min, and the pellet was treated with trypsin to recover single cells from the 3-D structures. The number of viable cells was determined by trypan blue exclusion in a hemocytometer and results expressed as average±SE from three independent experiments. […]

EIII8-HUVEC co-cultures [3] = assay: 3D growth of EIII8-HUVEC cultures by MTS assay and trypan blue counts
Experimental: To assess growth effects of E2 on homotypic (EIII8) or heterotypic (EIII8-HUVEC) 3D cultures, 5×10^4 EIII8 cells were seeded alone or mixed with an equivalent number of HUVEC in the appropriate medium in 8-well chamber slides coated with Matrigel as described above. Slides were incubated overnight to allow attachment of the cells, and treated with vehicle (0.01% ethanol, v/v), pure antiestrogen ICI 182,780 alone (100 or 1000 nM (Zeneca Pharmaceuticals, […]2 (0.1, 1 or 10 nM; Sigma Chemical Co., St. Louis, Mo.), or a combination of 1 nM E2 and 100- or 1000-fold molar excess of ICI 182,780. Cultures were incubated at 37° C. for 5 days, after which cell viability was measured with the MTS (3-(4,5-dimethylthiazol-2-yl)-5-(3-carboxymethoxyphenyl)-2-(4-sulfophenyl)-2H-tetrazolium) kit according to the manufacturer's directions (Promega Corp, Madison, Wis.). Measurements were made from triplicate sets of wells for each treatment. Background absorbance was corrected by preparing triplicate sets of wells containing only Matrigel (“no cell”) and the same volume of medium and MTS reagent as in experimental wells. Average absorbances from “no cell” wells were subtracted from sample absorbance values containing cells to yield corrected absorbance, and the results represent the average±S.E. of triplicate samples. Each experiment was repeated at least three times. Since the MTS assays performed here differs from routine MTS assays in that they are done on 3D cultures growing in Matrigel rather than monolayers, results of MTS assays were validated by performing direct cell counts of viable cells in the 3D cultures. For this, the medium was removed, wells rinsed with PBS, and Matrigel was digested with dispase for 2 h at 37° C. The digested material was centrifuged at 4000×g for 10 min, and the pellet treated with trypsin to recover single cells from the 3D tubular structures. The number of viable cells was determined by trypan blue exclusion in a hemocytometer. Results were expressed as mean±S.E. from three independent experiments.

Flk-1/KDR = assay: Western blot of Flk-1/KDR in matrix fractions of EIII8-HUVEC 3D cultures; settings: for regulation of Flk-1/KDR protein levels: 10-day old co-cultures
Experimental: (§3) 5×10^4 EIII8 or MCF10A cells were seeded alone or mixed with an equivalent number of HUVEC on Matrigel in SFM media as described above. Cells were incubated for 6 h to attach and the medium was replaced with fresh SFM. After appropriate incubation, the culture media from homotypic and heterotypic co-cultures were collected, centrifuged to remove debris and stored at −20° C. Following removal of culture medium, matrix containing the 3D structures was either solubilized for SDS-PAGE and Western blot analysis or fixed in buffered formalin for evaluation of morphology and distribution of functional markers.
Analysis of expression of VEGF, IL-8, Estrogen receptor (ER) and Flk-1/KDR proteins was carried out by Western analysis with specific antibodies. Aliquots of unconcentrated conditioned media or lysates of 3D cultures containing 20 or 40 μg total protein, respectively, were collected after indicated culture intervals, separated by SDS-PAGE on 12.5% (VEGF), 17% (IL-8) or 7% (ER and Flk-1/KDR) polyacrylamide gels (Laemmli, UK, Nature 227:680-685, 1970), and subjected to Western blot analysis. The following antibodies to human proteins were used: (1) rabbit polyclonal anti-VEGF antisera (recognizes C-terminal epitope of VEGF165, VEGF189 and VEGF206; Oncogene Science), mouse anti-ER mAb (Clone 1D5; reacts with the N-terminal domain or A/B region of the ER; Dako Corp., Carpenteria, Calif.), mouse anti-Flk-1/KDR mAb (Chemicon International, Inc.) and goat polyclonal anti-IL-8 antibody (R&D Systems). Immunoreactive bands were visualized by chemiluminescence, and band intensities were quantitated with a Model 300A densitometer (Molecular Dynamics, Sunnyvale, Calif.).

[4] = system: EIII8+31R+HUVEC tricultures; assay: 3D growth of EIII8+31R+HUVEC tricultures, viable cell count; settings: 1 or 10 nM E2, 6 days, reduction mammoplasty fibroblasts
Experimental: as §2

EIII8 cells = assay: Homotypic EIII8 3D Matrigel culture, phase contrast morphology
[5] = system: wild type ER protein (67 kDa); assay: Western blot of ER in matrix fractions of EIII8-HUVEC 3D cultures; settings: 100-fold molar excess over E2, day 5; 42 kDa ER-reactive protein appears
Experimental: as §3
Analysis of expression of VEGF, IL-8, Estrogen receptor (ER) and Flk-1/KDR proteins was carried out by Western analysis with specific antibodies. Aliquots of unconcentrated conditioned media or lysates of 3D cultures containing 20 or 40 μg total protein, respectively, were collected after indicated culture intervals, separated by SDS-PAGE on 12.5% (VEGF), 17% (IL-8) or 7% (ER and Flk-1/KDR) polyacrylamide gels (Laemmli, UK, Nature 227:680-685, 1970), and subjected to Western blot analysis. […] Immunoreactive bands were visualized by chemiluminescence, and band intensities were quantitated with a Model 300A densitometer (Molecular Dynamics, Sunnyvale, Calif.).

Q: Which “inhibition of endothelial sprouting and associated ductal-alveolar morphogenesis” value (EIII8-HUVEC co-cultures [1]) does the source give for CC/C(=C(\c1ccc(O)cc1)c1ccc(OCCN(C)C)cc1)c1ccccc1 [4(OH) tamoxifen] here?
A: The value was “dramatic inhibition”.

Q: How did the “increase in VEGF165 levels over control cultures” value (VEGF165; 1 nM E2, day 5, densitometry) turn out when C[C@]12CC[C@@H]3c4ccc(O)cc4CC[C@H]3[C@@H]1CC[C@@H]2O [E2, 17 β-estradiol] was run?
A: The value was 4 fold.

Q: And the “increase in VEGF165 levels over control cultures” value (VEGF165; 1 nM E2, day 10, densitometry)?
A: Its value is 8 fold.

Q: And the “regulation of IL-8 expression” value (IL-8; 1 nM E2, days 5 and 10)?
A: Its value is “did not appear to regulate IL-8 expression”.

Q: And the “influence on growth and proliferation of endothelial or epithelial cells” value (MCF10A-HUVEC co-cultures; addition of E2 (1 nM), day 5)?
A: Its value is “no significant influence”.

Q: And the “increase in triculture growth” value ([2]; apparent only with 10 nM E2, 6 days, p<0.03)?
A: Its value is “marginal increase”.

Q: What about the “increase in growth over control cultures” value (EIII8-HUVEC co-cultures [3]; 10 nM E2, day 5, p<0.01) of the same compound?
A: The value was 2 fold.

Q: What about the “concentrations giving dose dependent induction of growth” value (EIII8-HUVEC co-cultures [3]; day 5, MTS and trypan blue assays) of the same compound?
A: The value was over 1 nM.

Q: What about the “levels of Flk-1/KDR protein, E2-treated vs control” value (Flk-1/KDR; 1 nM E2, 5 day-old cultures) of the same compound?
A: The value was “equally up-regulated”.

Q: And the “regulation of Flk-1/KDR protein levels” value (Flk-1/KDR)?
A: Its value is “no longer regulated”.

Q: What about the “stimulation of triculture growth” value [4] of the same compound?
A: Its value is “failed to stimulate growth”.

Q: What about the “effect on EIII8 3D tubular structures (tube thickening, central spaces, connecting bridges)” value (EIII8 cells; 1 or 10 nM E2, 5 days, vs control cultures) of the same compound?
A: The value was “marked thickening of tubes; also recorded: induce formation of several new central spaces and connecting bridges”.

Q: What about the “growth of endothelial cell-enriched spots and ductal-alveolar outgrowths” value (EIII8-HUVEC co-cultures [1]; 1 nM E2, 5-day co-cultures, vs control) of the same compound?
A: Its value is “enhanced”.

Q: Which results are given for C[C@]12CC[C@@H]3c4ccc(O)cc4C[C@@H](CCCCCCCCC[S+]([O-])CCCC(F)(F)C(F)(F)F)[C@H]3[C@@H]1CC[C@@H]2O (some centres unmarked) [ICI 182,780]?
A: E2-stimulated VEGF165 levels (VEGF165; ICI 182,780 at 100-fold molar excess over 1 nM E2): returned to control levels; effect on IL-8 levels (IL-8; 100-fold molar excess over 1 nM E2, days 5 and 10): no effect; formation of endothelial cell-enriched spots / endothelial cell growth (MCF10A-HUVEC co-cultures; 1 nM E2 plus 100-fold molar excess ICI 182,780, day 5, MCF10A epithelium maintained): abolished; also recorded: specific inhibition; inhibition of growth in vehicle- and E2-treated cultures ([2]; 100 nM ICI 182,780 alone or with 1 nM E2, 6 days, p<0.001): significantly inhibited; also recorded: significantly decreased; amount of wild type ER [5]: significantly reduced; effect on growth promoting effects of E2 (EIII8-HUVEC co-cultures [3]; 100-fold molar excess over 1 nM E2, day 5, p<0.001): abolished; regulation of Flk-1/KDR protein levels (Flk-1/KDR): no longer regulated; reduction in Flk-1/KDR protein levels (Flk-1/KDR; 100-fold molar excess, 5-day old cultures): about 80%; blocking of E2-induced effects on EIII8 3D structures (epithelial multilayering) (EIII8 cells; 1 nM E2 plus 100-fold molar excess of antiestrogen, 5 days): blocked; also recorded: significantly inhibits; inhibition of endothelial sprouting and associated ductal-alveolar morphogenesis (EIII8-HUVEC co-cultures [1]): dramatic inhibition; also recorded: specific inhibition

From patent US6828111B2, “Three-dimensional in vitro model of human preneoplastic breast disease” (Wayne State University, priority 2000, dated 2004)
